Assay results as given in patent US20060229254A1, “Compounds having prolyl oligopeptidase inhibitory activity” (priority 2003, published 2006).

Biological target: T1, pig brain prolyl oligopeptidase (Sus scrofa, UniProt P23687)
T1 construct: The brains were homogenized with a glass-teflon homogenisator in 3 volumes (w/v) of ice-cold 0.1 M sodium-potassium phosphate buffer; from tissue; host or cells: pig brain (whole brain excluding cerebellum and most of the brain stem), 10000 g supernatant of the homogenate
T1 sequence (P23687 whole entry): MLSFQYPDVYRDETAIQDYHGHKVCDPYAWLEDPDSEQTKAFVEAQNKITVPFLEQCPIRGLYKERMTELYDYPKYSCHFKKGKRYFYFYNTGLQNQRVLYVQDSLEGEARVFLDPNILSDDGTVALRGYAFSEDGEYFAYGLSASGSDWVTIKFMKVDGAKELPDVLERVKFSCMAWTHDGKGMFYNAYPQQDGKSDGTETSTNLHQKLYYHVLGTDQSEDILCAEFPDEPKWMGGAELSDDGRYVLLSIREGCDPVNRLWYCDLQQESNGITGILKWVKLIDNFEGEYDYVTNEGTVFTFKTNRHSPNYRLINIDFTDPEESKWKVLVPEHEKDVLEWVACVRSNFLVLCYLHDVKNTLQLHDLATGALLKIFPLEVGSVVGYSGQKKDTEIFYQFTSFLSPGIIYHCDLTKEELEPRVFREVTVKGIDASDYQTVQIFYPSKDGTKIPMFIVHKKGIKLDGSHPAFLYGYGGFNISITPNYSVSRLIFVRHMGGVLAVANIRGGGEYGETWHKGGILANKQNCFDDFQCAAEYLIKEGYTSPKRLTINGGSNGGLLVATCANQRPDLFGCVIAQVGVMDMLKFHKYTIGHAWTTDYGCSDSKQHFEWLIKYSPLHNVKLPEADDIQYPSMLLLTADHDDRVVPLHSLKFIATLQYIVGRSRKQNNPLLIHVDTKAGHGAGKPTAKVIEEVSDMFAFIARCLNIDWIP
Assay: Inhibition of pig brain prolyl oligopeptidase (Suc-Gly-Pro-AMC fluorometric microplate assay)
Format: biochemical
Conditions: pig brain supernatant, Suc-Gly-Pro-AMC substrate, 30 min preincubation, 30° C., pH 7.0
Procedure: The inhibitory effect of the novel compounds on POP activity of pig brain was determined with a method based on that described by Toide et al. (Toide, K, Iwamoto, Y., Fujiwara. T., Abe, H., J. Pharmacol. Exp. Ther., 1995, 274, 1370-1378) for the rat enzyme.
The whole pig brains, excluding cerebellum and most of the brain stem, of three pigs were placed in liquid nitrogen within 30 min from killing and stored at −80° C. until homogenized. The brains were homogenized with a glass-teflon homogenisator in 3 volumes (w/v) of ice-cold 0.1 M sodium-potassium phosphate buffer (pH 7.0) and the homogenates were centrifuged for 20 min at 4° C. at 10000 g. The supernatants were collected, pooled and stored in small aliquots at −80° C. until used. The supernatant was thawn in ice just before activity assay and diluted in a ratio 1:2 with homogenisation buffer (=enzyme preparation).
In the microplate assay procedure, 10 μl of enzyme preparation was preincubated with 460 μl of 0.1 M sodium-potassium phosphate buffer (pH 7.0) and 5 μl of a solution of novel compound dissolved in DMSO and diluted with 0.1 M sodium-potassium phosphate buffer at 30° C. for 30 min. The controls contained 10 μl enzyme preparation and 465 μl of 0.1 M sodium-potassium phosphate buffer (pH 7.0). The reaction was initiated by adding 25 μl of 4 mM Suc-Gly-Pro-AMC (AMC: 7-amido-4-methylcoumarin) dissolved in 0.1 M sodium-potassium phosphate buffer (pH 7.0), and the mixture was incubated at 30° C. for 60 min. The reaction was terminated by adding 500 μl of 1 M sodium acetate buffer (pH 4.2).
Formation of 7-amido-4-methylcoumarin was determined fluorometrically with microplate fluorescence reader (excitation at 360 nm and emission at 460 nm). The final concentration of novel compounds in the assay mixture varied from 10^−12 M to 10^−4 M.
The prolyl oligopeptidase activity was calculated with the following formula in the presence of various concentrations of novel compounds. To reveal the inhibitory potency of the novel compound, activities (% of control) were plotted against the log concentration of the compound, and the IC50 value was determined by non-linear regression utilizing GraphPad Prism software. Activity (% of control)=a/b×100, where
a=fluorescence intensity in the presence of a novel compound
b=fluorescence intensity without a novel compound (control)

| Molecule | IC50 [nM] |
| --- | --- |
| O=C(Cc1ccccc1)C1=CCCC1C(=O)N1CCCC1 (stereo not shown) [Example 4, 2-Benzylcarbonyl-cyclopent-2-ene-carboxylic acid pyrrolidine amide] | 7.7 |
| C[C@@H]1CC[C@@H](C(=O)N2CCC[C@H]2C(=O)CO)N1C(=O)CCCc1ccccc1 [Example 8, 4-Phenylbutanoyl-5(R)-methyl-L-prolyl-2(S)-(hydroxyacetyl)-pyrrolidine] | 0.15 |
| N#C[C@@H]1CCCN1C(=O)C1CCC=C1C(=O)NCc1ccccc1 (stereo partly drawn) [Example 1, 2-(Benzylcarbamoyl)-cyclopent-2-ene-carboxylic acid 2(S)-cyanopyrrolidine amide] | 0.38 |
| CC(C)(C)[C@H]1CC[C@@H](C(=O)N2CCC[C@H]2C(=O)CO)N1C(=O)CCCc1ccccc1 [Example 12, 4-Phenylbutanoyl-5(R)-tert-butyl-L-prolyl-2(S)-(hydroxyacetyl)-pyrrolidine] | 0.24 |
| CC(C)(C)OC(=O)N1[C@H](C(C)(C)C)CC[C@H]1C(=O)N1CCCC1 [Example 16, Boc-5(S)-tert-butyl-L-prolyl-pyrrolidine] | 9.2 |
| CC(C)(C)[C@H]1CC[C@@H](C(=O)N2CCCC2)N1C(=O)CCCc1ccccc1 [Example 11, 4-Phenylbutanoyl-5(R)-tert-butyl-L-prolyl-pyrrolidine] | 1.6 |
| O=C(NCc1ccccc1)C1=CCCC1C(=O)N1CCC[C@H]1C(=O)CO (single isomer, unassigned) [Example 2] | 0.32 |
| 4-Phenylbutanoyl-5(R)-methyl-L-prolyl-pyrrolidine [Example 7] | 0.71 |
| C[C@H]1CC[C@@H](C(=O)N2CCC[C@H]2C(=O)CO)N1C(=O)CCCc1ccccc1 [Example 15, 4-Phenylbutanoyl-5(S)-methyl-L-prolyl-2(S)-(hydroxyacetyl)-pyrrolidine] | 0.17 |
| N#C[C@@H]1CCCN1C(=O)C1CCC=C1C(=O)CCCc1ccccc1 (stereo partly drawn) [Example 5, 2-(4-Phenylbutanoyl)-cyclopent-2-ene-carboxylic acid 2(S)-cyanopyrrolidine amide] | 0.21 |
| 4-Phenylbutanoyl-5(S)-methyl-L-prolyl-pyrrolidine [Example 14] | 1.4 |
| CC(C)(C)OC(=O)N1[C@H](C(=O)N2CCCC2)CC[C@@H]1C(C)(C)C [Example 9, Boc-5(R)-tert-butyl-L-prolyl-pyrrolidine] | 2.2 |
| O=C(NCc1ccccc1)C1=CCCC1C(=O)N1CCCC1 (stereo not shown) [Example 3, 2-Benzylcarbamoyl-cyclopent-2-ene-carboxylic acid pyrrolidine amide] | 9 |
